From paper PMC6496959 (Journal of medicinal chemistry, 2018)

system: influenza virus (A/PR/8/34); assay: not given; conditions: not given

| Compound | inhibition of virus-induced aggregation of chicken erythrocytes |
| --- | --- |
| C[C@H]1[C@H](NCc2sccc2C2CC2)C[C@H]2C[C@@H]1C2(C)C [Compound 18] | did not inhibit |

system: MDCK cells; assay: not given; conditions: minimal change in cell morphology after 48 h incubation

| Compound | MCC (minimum cytotoxic concentration) [µM] |
| --- | --- |
| C[C@H]1[C@H](NCc2nccs2)C[C@H]2C[C@@H]1C2(C)C [Compound 8] | >100 |
| C[C@H]1[C@H](NCc2sccc2C2CCCCC2)C[C@H]2C[C@@H]1C2(C)C [Compound 20] | 1.56 |
| C[C@H]1[C@H](NCc2ccc(Cl)s2)C[C@H]2C[C@@H]1C2(C)C [Compound 35] | 25 |
| C[C@H]1[C@H](NCc2sccc2Br)C[C@H]2C[C@@H]1C2(C)C [Compound 13] | 50 |
| C[C@H]1[C@H](NCc2cc(-c3ccccc3)cs2)C[C@H]2C[C@@H]1C2(C)C [Compound 34] | 5 |
| Cc1n[nH]cc1CN[C@@H]1C[C@H]2C[C@@H]([C@H]1C)C2(C)C [Compound 3] | >100 |
| C[C@H]1[C@H](NCc2ccc(-c3ccc(Br)s3)s2)C[C@H]2C[C@@H]1C2(C)C [Compound 41] | 0.78 |
| C=Cc1csc(CN[C@@H]2C[C@H]3C[C@@H]([C@H]2C)C3(C)C)c1 [Compound 28] | 6.25 |
| C[C@H]1[C@H](NCc2ccc(C(C)(C)C)s2)C[C@H]2C[C@@H]1C2(C)C [Compound 39] | 0.78 |
| C[C@H]1[C@H](NCc2ccc(Br)s2)C[C@H]2C[C@@H]1C2(C)C [Compound 37] | 43 |
| C[C@H]1[C@H](NCc2sccc2C2CCCC2)C[C@H]2C[C@@H]1C2(C)C [Compound 19] | 12.5 |
| Cc1csc(CN[C@@H]2C[C@H]3C[C@@H]([C@H]2C)C3(C)C)n1 [Compound 10] | >100 |
| C[C@H]1[C@H](NCc2cccs2)C[C@H]2C[C@@H]1C2(C)C [Compound 7] | 25 |
| C[C@H]1[C@H](NCc2sccc2-c2ccccc2)C[C@H]2C[C@@H]1C2(C)C [Compound 22] | 12.5 |
| C[C@H]1[C@H](NCc2cc(C3CC3)cs2)C[C@H]2C[C@@H]1C2(C)C [Compound 30] | 25 |
| C[C@H]1[C@H](NCc2ccsc2)C[C@H]2C[C@@H]1C2(C)C [Compound 6] | 50 |
| C[C@H]1[C@H](NCc2sccc2-c2ccsc2)C[C@H]2C[C@@H]1C2(C)C [Compound 21] | 12.5 |
| CCCCc1ccsc1CN[C@@H]1C[C@H]2C[C@@H]([C@H]1C)C2(C)C [Compound 15] | 25 |
| Cc1ccsc1CN[C@@H]1C[C@H]2C[C@@H]([C@H]1C)C2(C)C [Compound 11] | 10 |
| CCCc1ccsc1CN[C@@H]1C[C@H]2C[C@@H]([C@H]1C)C2(C)C [Compound 14] | 50 |
| C[C@H]1[C@H](NCc2cc(Br)cs2)C[C@H]2C[C@@H]1C2(C)C [Compound 23] | 6.25 |

| Compound | MCC (minimum cytotoxic concentration) [µM] |
| --- | --- |
| CCc1ccsc1CN[C@@H]1C[C@H]2C[C@@H]([C@H]1C)C2(C)C [Compound 12] | 25 |
| CCCCc1csc(CN[C@@H]2C[C@H]3C[C@@H]([C@H]2C)C3(C)C)c1 [Compound 27] | 12.5 |
| C[C@H]1[C@H](NCc2ccco2)C[C@H]2C[C@@H]1C2(C)C [Compound 5] | 50 |
| C[C@H]1[C@H](NCc2cncs2)C[C@H]2C[C@@H]1C2(C)C [Compound 9] | >100 |
| CSc1ccc(CN[C@@H]2C[C@H]3C[C@@H]([C@H]2C)C3(C)C)s1 [Compound 40] | 25 |
| CCc1ccc(CN[C@@H]2C[C@H]3C[C@@H]([C@H]2C)C3(C)C)s1 [Compound 38] | 1.56 |
| C[C@H]1[C@H](NCc2cc(-c3ccsc3)cs2)C[C@H]2C[C@@H]1C2(C)C [Compound 33] | 25 |
| Cc1csc(CN[C@@H]2C[C@H]3C[C@@H]([C@H]2C)C3(C)C)c1 [Compound 24] | 12.5 |
| C=C(C)c1csc(CN[C@@H]2C[C@H]3C[C@@H]([C@H]2C)C3(C)C)c1 [Compound 29] | 25 |
| NC12CC3CC(CC(C3)C1)C2 [Amantadine, amantadine, reference compound] | >100 |
| C[C@H]1[C@H](NCc2cnccn2)C[C@H]2C[C@@H]1C2(C)C [Compound 2] | >100 |
| C=Cc1ccsc1CN[C@@H]1C[C@H]2C[C@@H]([C@H]1C)C2(C)C [Compound 17] | 50 |
| CCOc1ccsc1CN[C@@H]1C[C@H]2C[C@@H]([C@H]1C)C2(C)C [Compound 16] | 50 |
| Cc1ccc(CN[C@@H]2C[C@H]3C[C@@H]([C@H]2C)C3(C)C)s1 [Compound 36] | 0.78 |
| C[C@H]1[C@H](NCc2cc(C3CCCC3)cs2)C[C@H]2C[C@@H]1C2(C)C [Compound 31] | 1.56 |
| C[C@H]1[C@H](NCc2cncnc2)C[C@H]2C[C@@H]1C2(C)C [Compound 1] | >100 |
| C[C@H]1[C@H](NCc2ccoc2)C[C@H]2C[C@@H]1C2(C)C [Compound 4] | >100 |
| CCCc1csc(CN[C@@H]2C[C@H]3C[C@@H]([C@H]2C)C3(C)C)c1 [Compound 26] | 12.5 |
| CCc1csc(CN[C@@H]2C[C@H]3C[C@@H]([C@H]2C)C3(C)C)c1 [Compound 25] | 25 |
| C[C@H]1[C@H](NCc2cc(C3CCCCC3)cs2)C[C@H]2C[C@@H]1C2(C)C [Compound 32] | 0.78 |

system: A/Guangzhou/GIRD/07/2009 (H1N1); assay: microbe, parasite or virus in culture; type: cell-based; conditions: Influenza A virus, H1N1, MDCK, 48 h, read-out: Activity (EC50, μM)

| Compound | EC50 [µM] |
| --- | --- |
| C[C@H]1[C@H](NCc2nccs2)C[C@H]2C[C@@H]1C2(C)C [Compound 8] | > 50 |
| C[C@H]1[C@H](NCc2sccc2C2CCCCC2)C[C@H]2C[C@@H]1C2(C)C [Compound 20] | > 0.78 |
| C[C@H]1[C@H](NCc2ccc(Cl)s2)C[C@H]2C[C@@H]1C2(C)C [Compound 35] | > 0.78 |
| C[C@H]1[C@H](NCc2sccc2Br)C[C@H]2C[C@@H]1C2(C)C [Compound 13] | > 0.78 |
| C[C@H]1[C@H](NCc2cc(-c3ccccc3)cs2)C[C@H]2C[C@@H]1C2(C)C [Compound 34] | > 0.78 |
| Cc1n[nH]cc1CN[C@@H]1C[C@H]2C[C@@H]([C@H]1C)C2(C)C [Compound 3] | > 50 |
| C[C@H]1[C@H](NCc2ccc(-c3ccc(Br)s3)s2)C[C@H]2C[C@@H]1C2(C)C [Compound 41] | > 0.78 |
| C=Cc1csc(CN[C@@H]2C[C@H]3C[C@@H]([C@H]2C)C3(C)C)c1 [Compound 28] | > 0.78 |
| C[C@H]1[C@H](NCc2ccc(C(C)(C)C)s2)C[C@H]2C[C@@H]1C2(C)C [Compound 39] | > 0.78 |
| C[C@H]1[C@H](NCc2ccc(Br)s2)C[C@H]2C[C@@H]1C2(C)C [Compound 37] | > 0.78 |
| C[C@H]1[C@H](NCc2sccc2-c2ccccc2)C[C@H]2C[C@@H]1C2(C)C [Compound 22] | > 0.78 |
| C[C@H]1[C@H](NCc2sccc2-c2ccsc2)C[C@H]2C[C@@H]1C2(C)C [Compound 21] | > 0.78 |
| Cc1ccsc1CN[C@@H]1C[C@H]2C[C@@H]([C@H]1C)C2(C)C [Compound 11] | > 0.78 |
| CCCc1ccsc1CN[C@@H]1C[C@H]2C[C@@H]([C@H]1C)C2(C)C [Compound 14] | > 0.78 |
| CCc1ccsc1CN[C@@H]1C[C@H]2C[C@@H]([C@H]1C)C2(C)C [Compound 12] | > 0.78 |
| C[C@H]1[C@H](NCc2ccco2)C[C@H]2C[C@@H]1C2(C)C [Compound 5] | > 50 |
| C[C@H]1[C@H](NCc2cncs2)C[C@H]2C[C@@H]1C2(C)C [Compound 9] | > 50 |
| CSc1ccc(CN[C@@H]2C[C@H]3C[C@@H]([C@H]2C)C3(C)C)s1 [Compound 40] | > 0.78 |
| CCc1ccc(CN[C@@H]2C[C@H]3C[C@@H]([C@H]2C)C3(C)C)s1 [Compound 38] | > 0.78 |
| C[C@H]1[C@H](NCc2cc(-c3ccsc3)cs2)C[C@H]2C[C@@H]1C2(C)C [Compound 33] | > 0.78 |
| C=C(C)c1csc(CN[C@@H]2C[C@H]3C[C@@H]([C@H]2C)C3(C)C)c1 [Compound 29] | > 0.78 |
| C[C@H]1[C@H](NCc2cnccn2)C[C@H]2C[C@@H]1C2(C)C [Compound 2] | > 50 |
| CCOc1ccsc1CN[C@@H]1C[C@H]2C[C@@H]([C@H]1C)C2(C)C [Compound 16] | > 0.78 |
| Cc1ccc(CN[C@@H]2C[C@H]3C[C@@H]([C@H]2C)C3(C)C)s1 [Compound 36] | > 0.78 |
| C[C@H]1[C@H](NCc2cc(C3CCCC3)cs2)C[C@H]2C[C@@H]1C2(C)C [Compound 31] | > 0.78 |
| C[C@H]1[C@H](NCc2cncnc2)C[C@H]2C[C@@H]1C2(C)C [Compound 1] | > 50 |
| CCCc1csc(CN[C@@H]2C[C@H]3C[C@@H]([C@H]2C)C3(C)C)c1 [Compound 26] | > 0.78 |
| CCc1csc(CN[C@@H]2C[C@H]3C[C@@H]([C@H]2C)C3(C)C)c1 [Compound 25] | > 0.78 |
| C[C@H]1[C@H](NCc2cc(C3CCCCC3)cs2)C[C@H]2C[C@@H]1C2(C)C [Compound 32] | > 0.78 |
